Results as given in patent US8791079B2, “Methods for treating heart failure by inhibiting the mitochondrial sodium-calcium exchanger (mNCE)” (priority 2009, dated 2014).
Like-named read-outs stand apart in the source and are kept apart here.

Key:
[1] = system: Guinea pig hearts; experiment: Oxygen consumption in isolated perfused hearts; settings: ouabain followed by isoproterenol, without (isoproterenol) or with CGP-37157
Description: (§1) Guinea pig hearts were quickly excised under anesthesia and mounted on a modified Langendorff apparatus attached to a Powerlab system (AD Instruments, Colorado Springs, Colo.). Hearts were perfused with gassed (95/5% O2/CO2) control buffer containing: 118-mM NaCl, 24-mM NaHCO3, 1.2-mM KH2PO4, 4.75-mM KCl, 1.2-mM MgSO4, 2.0-mM CaCl2, and 10-mM glucose. A buffer-filled latex balloon (Harvard apparatus) was inserted through the mitral valve into the left ventricle. Hearts were suspended in a buffer-filled heating chamber maintained at 37° C. and two electrodes were placed into the bath for volume-conducted electrocardiogram recordings. Heart rate, left ventricular developed pressure (LVDP), maximal rates of contraction and relaxation (±dP/dt), oxygen consumption, and electrocardiograms (ECG) were recorded on a computer. After a ten-minute equilibration period, hearts were subjected to the following protocol: ten-minute baseline recording while the heart was perfused with control buffer, ten-minute recording while 0.25-μM ouabain with or without 1 μM CGP-37157, and sixty-minute recording while hearts were stimulated with 25-nM isoproterenol. The measurements of hemodynamic parameters were determined by taking the average during the last two minutes before ouabain treatment (baseline) and for two minutes during the maximal effect on LVDP of either ouabain or isoproterenol.
Cardiac O2 concentration was measured with an O2 probe attached to a PowerLab system (AD Instruments). The probe was calibrated with 95% O2-saturated buffer as 100% and 100% N2-saturated buffer as 0%. The molar concentration of O2 consumption was calculated from percentage concentration with the following equation: VO2(μmol/min/g dwt)=CF×(0.02373/22.414)×((760−p)/760)×(ΔO2%/100)/dwt
where CF is coronary flow (mL/min); 0.02373 is the absorption coefficient of O2 in H2O at 37° C.; 22.414 is the volume (L) of 1 mol gas at STP; 760 is 1 atm in mm Hg; p equals 47.067, which is the vapor pressure of H2O at 37° C.; ΔO2% is the difference in O2 percentage concentration between inflow buffer collected from cannula before heart was mounted and outflow buffer collected from pulmonary artery; dwt is dry heart weight.

[2] = system: Guinea pig hearts; experiment: Hemodynamics of isolated perfused hearts (Langendorff); settings: 25-nM isoproterenol in ouabain-treated hearts, absence (isoproterenol) or presence of CGP-37157
Description: as §1
In Table 1A-1C, hemodynamics of isolated perfused hearts were recorded at baseline, with ouabain treatment (1 μM), and with ouabain plus isoproterenol (100 nM) stimulation with or without CGP-37157 (1 μM). HR, heart rate; LVDP, left ventricular developed pressure; Oua: ouabain; CGP: CGP-37157; VF: ventricular fibrillation. *p<0.05 compared to group without CGP; † p<0.05 compared to baseline.

[3] = system: HF patients; settings: cited from earlier work; for mortality: post hoc analysis of DIG trial

SMILES	increase of whole-heart oxygen consumption (VO2) compared to baseline [1] [%]	increase of +dP/dt compared to the level with ouabain treatment [2] [%]	increase of LVDP compared to the level with ouabain treatment [2]	increase of heart rate (HR) compared to the level with ouabain treatment [2] [%]	increase of −dP/dt compared to the level with ouabain treatment [2] [%]	overall mortality ([3]; DIG trial, HF patients)	mortality ([3]; SDC ≧1.0 ng/mL)	mortality ([3]; serum digoxin concentration (SDC) 0.5-0.9 ng/mL)
CC(C)NCC(O)c1ccc(O)c(O)c1 (centres unmarked) [isoproterenol, 4-[1-hydroxy-2-(isopropylamino)ethyl]benzene-1,2-diol, reference compound]	25	57	not increased further	28	52	–	–	–
C[C@H]1O[C@@H](OC2[C@@H](O)C[C@H](OC3[C@@H](O)CC(O[C@H]4CC[C@@]5(C)[C@H](CC[C@@H]6[C@@H]5C[C@@H](O)[C@]5(C)[C@@H](C7=CC(=O)OC7)CC[C@]65O)C4)O[C@@H]3C)O[C@@H]2C)C[C@H](O)C1O (stereo in doubt) [digoxin, 4-[(3S,5R,8R,9S,10S,12R,13S,14S)-3-[(2S,4S,5R,6R)-5-[(2S,4S,5R,6R)-5-[(2S,4S,5R,6R)-4,5-dihydroxy-6-methyl-oxan-2-yl]oxy-4-hydroxy-6-methyl-oxan-2-yl]oxy-4-hydroxy-6-methyl-oxan-2-yl]oxy-12,14-dihydroxy-10,13-dimethyl-1,2,3,4,5,6,7,8,9,11,12,15,16,17-tetradecahydrocyclopenta[a]phenanthren-17-yl]-5H-furan-2-one]	–	–	–	–	–	did not affect overall mortality	no effect on mortality	reduced mortality of all HF patients
